Results published in a compilation of properties of binary mixtures (doi:10.1007/s10953-020-00967-3).

Assay: xn = mol fraction of the nth substance listed
Settings: 101 kPa

CN(C)C=O + CCCC[n+]1ccn(C)c1.F[B-](F)(F)F
x2 = 0
Settings	viscosity [mPa·s]
293.15 K	0.88
298.15 K	0.83
303.15 K	0.78
308.15 K	0.74
313.15 K	0.7
318.15 K	0.67
323.15 K	0.63

CCCC[n+]1ccn(C)c1.F[B-](F)(F)F + CN(C)C=O
viscosity [mPa·s]
Settings	293.15 K	298.15 K	303.15 K	308.15 K	313.15 K	318.15 K	323.15 K
x1 = 0.08	–	2.56	2.3	2.27	1.95	–	–
x1 = 0.16	5.71	3.95	3.21	3.29	–	1.84	1.63
x1 = 0.24	9	5.82	4.17	3.9	2.61	1.59	1.88
x1 = 0.34	13.7	8.9	6.22	4.65	2.49	0.55	1.38
x1 = 0.43	18.4	12.1	8	–	2.98	–	0.75
x1 = 0.55	26.7	17.7	12.7	9.6	5.74	–	0.5
x1 = 0.65	38.3	27.6	20.7	16	10.4	5.23	2.3
x1 = 0.74	55.2	–	33.6	26.2	–	–	–
x1 = 0.83	77	–	51.9	42.4	32.6	23.6	15.9
x1 = 0.94	105	–	–	61.9	49.3	37.5	–
x1 = 1	125	105	88	72	57.7	44	31.6
